Data from ChEMBL document CHEMBL1201862, “PubChem BioAssay data set” (2004).
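Method: 48-hour compound exposure of cells in 96-well plates, five concentrations, linear interpolation of endpoints. GI50 is the concentration that inhibits growth by half.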 Activity calls are given as the source filed them. Cut-off read from the data, not from the text of the source: active = GI50 up to about 1.1 µM and inactive = higher.

Tests used:
Experiment in all cases: NCI-60 cell line screen, 48 h
OVCAR-8 = system: OVCAR-8
SK-MEL-2 = system: SK-MEL-2
NCI-H23 = system: NCI-H23
MOLT-4 = system: MOLT-4
HOP-62 = system: HOP-62
UACC-62 = system: UACC-62
OVCAR-5 = system: OVCAR-5
SK-OV-3 = system: SK-OV-3
NCI-H522 = system: NCI-H522
OVCAR-4 = system: OVCAR-4
SN12C = system: SN12C
LOX IMVI = system: LOX IMVI
UACC-257 = system: UACC-257
T47D = system: T47D
HCT-15 = system: HCT-15
K562 = system: K562
EKVX = system: EKVX
TK-10 = system: TK-10
ACHN = system: ACHN
SK-MEL-5 = system: SK-MEL-5

Compound	GI50 (OVCAR-8)	GI50 (SK-MEL-2)	GI50 (NCI-H23)	GI50 (MOLT-4)	GI50 (HOP-62)	GI50 (UACC-62)	GI50 (OVCAR-5)	GI50 (SK-OV-3)	GI50 (NCI-H522)	GI50 (OVCAR-4)	GI50 (SN12C)	GI50 (LOX IMVI)	GI50 (UACC-257)	GI50 (T47D)	GI50 (HCT-15) [µM]	GI50 (K562)	GI50 (EKVX)	GI50 (TK-10)	GI50 (ACHN)	GI50 (SK-MEL-5)
CC1OC(O[C@@H]2OC=C(C=O)[C@@]3(O)CC[C@H](C)[C@@H]23)C(O)C(O)C1O (stereo not given in full)	> 100 µM (inactive)	> 100 µM (inactive)	> 100 µM (inactive)	> 100 µM (inactive)	> 100 µM (inactive)	> 100 µM (inactive)	> 100 µM (inactive)	> 100 µM (inactive)	> 100 µM (inactive)	> 100 µM (inactive)	> 100 µM (inactive)	> 100 µM (inactive)	> 100 µM (inactive)	> 100 µM (inactive)	> 100	> 100 µM (inactive)	> 100 µM (inactive)	> 100 µM (inactive)	> 100 µM (inactive)	> 100 µM (inactive)
O=[N+]([O-])c1ccc2c(/N=N/c3ccc4ccccc4c3O)c(O)cc(S(=O)(=O)O)c2c1	7.41 µM (inactive)	23 µM (inactive)	31.3 µM (inactive)	3.98 µM (inactive)	24.9 µM (inactive)	7.21 µM (inactive)	15.1 µM (inactive)	18.7 µM (inactive)	7.71 µM (inactive)	9.64 µM (inactive)	38.5 µM (inactive)	6.65 µM (inactive)	31.3 µM (inactive)	20.4 µM (inactive)	9.93	20.6 µM (inactive)	14.7 µM (inactive)	> 65.3 µM (inactive)	7.13 µM (inactive)	15.8 µM (inactive)
